Data on four compounds can be found in paper PMC8675869, “Oral Efficacy of a Diselenide Compound Loaded in Nanostructured Lipid Carriers in a Murine Model of Visceral Leishmaniasis” (ACS Infectious Diseases, 2021).

Values after ≈ are worked out from the molar mass of the structure shown. Some results are limits rather than exact numbers.

The nature of series [1]: Solubility in fasted simulated intestinal fluid (FaSSIF). The series is classed as physicochemical. To be noted: thermodynamic from solid, fasted simulated intestinal fluid pH 6.5, 4 h, r.t., as Se content, read-out: solubility in SSIF. How it is done: This experiment determines the solubility of a solid compound in fasted simulated intestinal fluid (FaSSIF) at pH 6.5 after 4 h of equilibration at r.t.[58] In brief, 1 mL of FaSSIF (3 mM sodium taurocholate and 0.75 mM lecithin in sodium phosphate buffer at pH 6.5) was added to 2 mg of the solid compounds. The resulting suspensions were shaken at 900 rpm for 4 h at r.t. Then, they were centrifuged at 12,600 × g for 10 min. The amount of selenocompounds, as selenium (Se) content, remaining in the supernatant was quantified by graphite atomic absorption spectrometry, as described in the Supporting Information. Results are expressed as mean ± SD of three replicates.

In another series the test system is THP-1 cells. To be noted: read-out: THP-1 cells CC50; concentration that kills cells by 50%; cited from earlier work.
A short description of series [2]: In vitro release from NLC in SGF and SIF. The series is classed as physicochemical. To be noted: cumulative Se release. As for the experimental part: The release studies of compounds 2h and 2m were performed at 37 °C using simulated gastric fluid (SGF, pH 1.2, pepsin 0.32% (w/v)) and simulated intestinal fluid (SIF, pH 6.8, pancreatin 1% (w/v)) with 2% v/v PEG 400, 5% w/v D-α-tocopherol polyethylene glycol 1000 succinate and 2.5% v/v DMSO added to ensure sink conditions. The dialysis membranes (with 100 kDa pore size) were filled with 30 mg of lyophilized formulations either 2h-NLC or 2m-NLC (corresponding to around 60 μg of the selenocompounds) dispersed in 1 mL of distilled water. The loaded dialysis membranes were placed into a beaker containing 25 mL of SGF. The simulated fluid was kept under magnetic stirring at 150 rpm, and at fixed times 0.250 mL samples were withdrawn and replaced with an equal volume of SGF. Two hours after the incubation in SGF, the device was transferred to another beaker containing 25 mL of SIF magnetically stirred at 150 rpm. As previously, at fixed times, samples were withdrawn and replaced with free SIF. The in vitro release study finished 24 h after the experiment began. The amount of Se released from the nanocarriers was determined by graphite atomic absorption spectrometry, as described in the Supporting Information. Results are expressed as mean ± SD of at least three replicates.

Series [3] has as its target trypanothione reductase (TR). Set-up: method as in PMID 33046492. To be noted: concentration that inhibits TR activity by 50%; read-out: TR inhibition IC50; cited from earlier work.
Series [4] is described as follows: Acute toxicity, Up-and-Down procedure (OECD 425), i.p. The following applies: mouse, in vivo, ip, 17.5 mg/kg, mice. How it is done: Acute toxicity was carried out following the Up-and-Down procedure proposed by the OECD 425.[61] Three mice were treated with a dose of 17.5 mg/kg of each compound, 2h and 2m, administered by i.p. route. If all the mice died, 1/3 of the dose was administered to other new three mice. If all of them survived, the dose was tripled. If one or two of them died, the same dose was administered to one or two mice more. Both compounds were solubilized in PEG 400:H2O:D-α-tocopherol polyethylene glycol 1000 succinate (60:38.4:1.6, v/v/w).

Series [5] concerns Salmonella typhimurium (TA1535/pSK1002 strain). Nature of the series: SOS/UMU genotoxicity test. The series is classed as cell-based. The following applies: with or without metabolic activation, highest concentration 1 mg/mL. As for the experimental part: Salmonella typhimurium (TA1535/pSK1002 strain) (DSMZ, Germany) was employed to determine the genotoxic potential of the compounds 2h and 2m and some of their possible metabolites, as previously described.[56] Bacteria were exposed to different concentrations of compounds either with or without metabolic activation (S9 mix, Mutazyme) to determine the bacterial survival percentage, calculated by measuring the absorbance at 600 nm. Afterward, the β-galactosidase activity was conducted using a colorimetric method employing o-nitrophenyl-β-D-galactopiranoside (ONPG) as a substrate. Genotoxicity activity was measured in terms of β-galactosidase activity calculating an induction factor (IF) relative to the negative control (i.e., bacteria exposed to the solvent) and positive controls (4-nitroquinoline for normal treatments and 2-aminoantracen for S9 metabolic activated treatments). A compound was considered genotoxic for IF values ≥2 at noncytotoxic concentration (i.e., bacterial survival ≥80%). The experiment was considered valid for positive controls if IF ≥ 2.

Series [6] is described as follows: Solubilizing capability of Transcutol for the compounds. The series is classed as physicochemical. To be noted: Transcutol as solvent.
Series [7] can be described thus: Ex vivo intestinal permeability (Ussing chamber). It is filed as in vitro ADME, Wistar rats. To be noted: rat jejunum, mucosal-to-serosal, as Se content; for Papp at 2 h, 5 mM: female, Wistar, rat, pH 7.4, free compounds; for intestinal permeability Papp: free compounds. How it is done: Intestinal permeation experiments were performed by using the Ussing chamber method as previously described.[59] Wistar female rats were fasted for 16 h with free access to water before the experiment. Rats were anesthetized with isoflurane and sacrificed by cervical dislocation. Jejunum was aseptically extracted, excised in 2 cm segments avoiding Peyer’s patches, and placed in cold 0.9% NaCl solution. Jejunum segments were anchored into the Ussing chambers. All experiments were realized from the apical side or donor compartment (DC) to the basolateral or receptor (RC) direction. For 2h and 2m compounds experiments, 5 mL of deionized water at pH 7.4 containing 4% (w/v) D-α-tocopherol polyethylene glycol 1000 succinate, and 5% (w/v) PEG 400 was added to both compartments to ensure sink conditions. In the case of NLC, 5 mL of PBS was used in both compartments. Chambers were continuously oxygenated and maintained at 37 °C. After 10 min of preincubation, the solution in the DC was replaced by 5 mL of either 2h and 2m solutions (final concentration of 5 mM) or their lyophilized NLC diluted in PBS at a 1 mM (in selenocompound concentration). Samples of 500 μL were collected from the RC every 20 min up to 2 h and replaced by an equal volume of the RC solution. Samples were frozen at −20 °C until analysis. The membrane integrity was evaluated by the addition of yellow lucifer to the DC and the determination of its fluorescence at the end of the experiment.[60] Experiments were carried out in triplicate for each compound and formulation. Se content in the RC was analyzed by flame atomic absorption spectrometry, as explained in the Supporting Information. The apparent permeability coefficient per unit membrane surface area (Papp (cm/s)), expressed as mean ± SD, was calculated according to eq 3 [drawing 3] 3 where dQ/dt was the steady-flux (mg/s), C0 was the initial compound concentration in the DC (mg/mL), and A was the surface area of the membrane (cm^2). It has been stablished that, in general, compounds with Papp > 1 × 10^–6 cm/s are well-absorbed in the human intestinal tract whereas Papp < 1 × 10^–6 cm/s are correlated with poor absorption.[32]

The nature of series [8]: Single-dose pharmacokinetic study in mice (plasma Se). The following applies: BALB/c, mouse, in vivo, ip, 4 mg/kg. As for the experimental part: A single-dose pharmacokinetic study of 2h, 2m, 2h-NLC, and 2m-NLC were evaluated in mice after i.p. (free drugs) or oral administration (free drugs and loaded into NLC). The dose (4 mg/kg) was selected taking into account LD50 obtained after i.p. administration of the compounds. Blood was collected from the submandibular plexus at different time points: 0, 0.25, 0.5, 1, 2, 4, 8, 24, and 48 h. Collected whole blood samples were centrifuged at 3000 × g for 10 min at 4 °C. The obtained plasma samples were stored at −80 °C until quantification of the drug by graphite atomic absorption spectroscopy, as described in the Supporting Information. Experiments were carried out in triplicate for each compound and formulation. Pharmacokinetic parameters were estimated by fitting the experimental data to a noncompartimental model (NCA) using PKsolver Excel program.[62] The analyzed parameters were as follows: Area under concentration–time curve (AUC), maximum serum concentration (Cmax), clearance (Cl), time of maximum concentration (tmax), mean residence time (MRT), and product half-life (t1/2). The extraction rate (ER) was calculated as the ratio between systemic blood clearance and mouse hepatic blood flow (considered 90 mL·min^–1·kg^–1). […]

Series [9] in a line: In vitro hepatic microsomal metabolism. The series is classed as in vitro ADME, BALB/c mice. The following applies: BALB/c; mouse liver microsomes 0.5 mg protein/mL, 500 μM compound, NADPH, 37 °C; read-out: microsomal stability t1/2 (converted). How it is done: Liver microsomes were isolated as previously described with minor modifications.[57] Mouse livers were removed and rinsed with 0.9% (w/v) NaCl solution. Then, livers were homogenized in ice-cold 0.25 M sucrose in 0.1 M PBS (pH 7.5). After 20 min of centrifugation at 9000 × g, the supernatant was ultracentrifuged at 100,000 × g for 1 h at 4 °C. The obtained microsome pellet was washed with 0.05 M PBS (pH 7.5) followed by another ultracentrifugation at 100,000 × g for 1 h at 4 °C. Microsomes were resuspended in 20% glycerol–0.1 M PBS and stored at −80 °C until use. Protein concentration was measured by microBCA kit (Thermo Scientific). […] Controls without hepatic cofactor and blanks without compounds were also analyzed. Metabolism was determined at 0, 0.1, 0.25, 0.5, 1, 1.5, and 2 h by the addition of an equal volume of ice-cold ACN, and samples were centrifuged at 9000 × g for 10 min. Supernatants were stored at −20 °C until high liquid performance chromatography (HPLC) quantification analysis at 290 nm, as described in the Supporting Information. Results are expressed as mean ± SD of at least three replicates. […] The rate of microsomal intrinsic clearance (Clint,micr, mL·min^–1·kg^–1) was then calculated following eq 1([27]) [drawing 1] […]
The calculated Clint,micr was used for the prediction of in vivo intrinsic hepatic clearance (Clint) using eq 2 and suitable scaling factors[27] […]

The conditions of series [10]: cited from earlier work.
On the set-up of series [11]: method as in PMID 25016034. To be noted: daily oral administration for 90 days; cited from earlier work.
Details of series [12]: method as in PMID 20643750. To be noted: mice, administration for 13 weeks; cited from earlier work.
The mark [13] stands for this setting: after 4 h of incubation in SIF (following 2 h SGF).
The mark [14] stands for this setting: first 2 h of incubation in SGF, 37 °C, sink conditions.

By solubility is commonly meant the dissolved amount per volume that the medium holds. What is called CC50 is the concentration giving 50% cytotoxicity. By IC50 is commonly meant the concentration at which inhibition is half-maximal. What is called LD50 is the dose expected to kill half of the subjects tested. A higher LD50 goes with a less toxic substance. The term Papp denotes the rate of passage across a membrane or cell layer, normalised by area and donor concentration. In general, logP refers to the decadic logarithm of the partition coefficient of the neutral form, usually between octanol and water. A word on the NOAEL: it is the highest dose or exposure tested at which no adverse effect was seen.

In the case of `O=C(Nc1ccc([Se][Se]c2ccc(NC(=O)c3ccco3)cc2)cc1)c1ccco1` [2h, N,N′-(4,4′-diselanediylbis(4,1-phenylene))bis-furan-2-carboxamide], in [1], the solubility at 4 h was 3.2 ± 1.7 µg/mL (≈ 6.03 µM). The CC50 with THP-1 cells was more than 50 µM. Besides, the “compound released from NLC” value in series [2] (setting [13]) is given as “around 13%”. The “compound released from NLC” value in series [2] (setting [14]) came out at 5.5 ± 3.1%. Also, the IC50 in series [3] is 14 ± 0.9 µM. For the same compound, the LD50 in series [4] turned out to be 17.5 mg/kg. Moreover, the “genotoxicity (SOS/UMU test)” value in series [5] is “did not produce cytotoxicity and DNA damage”. In addition, the “amount of compound dissolved in Transcutol” value in series [6] was “up to 6 mg of compound in 0.4 g”. For the same compound, in series [7], the apparent permeability coefficient (Papp) at 2 h, 5 mM is approximately 0.717 ×10⁻⁶ cm/s and the “intestinal permeability Papp” value is given as 7.2 ± 2.6 (×10^–7) cm/s. The “ER (extraction ratio)” value in series [8] was less than 0.3. Besides, the half-life at 500 μM in series [9] was 1.7 h. For the same compound, in [10], the logP was 1.
As for `O=C(Nc1ccc([Se][Se]c2ccc(NC(=O)c3cccc4ccccc34)cc2)cc1)c1cccc2ccccc12` [2m, N,N′-(4,4′-diselanediylbis(4,1-phenylene))bisnaphthamide], the solubility at 4 h in series [1] was 2.5 ± 0.5 µg/mL (≈ 3.84 µM). For the same compound, the 50% cytotoxic concentration (CC50) with THP-1 cells is more than 50 µM. Also, the “compound released from NLC” value in series [2] (setting [13]) was approximately 10%. Besides, the “compound released from NLC” value in series [2] (setting [14]) is recorded as 3.9 ± 0.3%. In addition, in series [3], the half-maximal inhibitory concentration (IC50) is 5.5 ± 0.1 µM. This compound showed an LD50 in series [4] of 17.5 mg/kg. The “genotoxicity (SOS/UMU test)” value in series [5] is “did not produce cytotoxicity and DNA damage”. Besides, in [6], the “amount of compound dissolved in Transcutol” value is on record as “up to 6 mg of compound in 0.4 g”. Further, in [7], the Papp at 2 h, 5 mM is approximately 0.591 ×10⁻⁶ cm/s and the “intestinal permeability Papp” value is 5.9 ± 1.1 (×10^–7) cm/s. Moreover, in series [9], the half-life at 500 μM is 1.2 h. Besides, the logP in [10] was 5.
In the case of `CCOCCOCCO` [Transcutol, diethylene glycol monoethyl ether], the “no observed adverse effect level (NOAEL)” value in series [11] was 850 to 1000 mg/kg/day.
In the case of Polysorbate 80 [Tween 80], in [12], the NOAEL is listed as 10 g/kg/day.
